In ChEMBL document CHEMBL1142476, “Inhibition of Candida albicans isocitrate lyase activity by sesterterpene sulfates from the tropical sponge Dysidea sp” (Bioorg Med Chem Lett, 2008):
pIC50: −log10 of the molar value. In brackets after ≈: the same amount, converted by molar mass.

Experiments:
Isocitrate lyase = Isocitrate lyase (Candida albicans, UniProt Q9P8Q7); assay: Inhibition of candida albicans isocitrate lyase
Candida albicans = assay: Antifungal activity against candida albicans ATCC 10231; assay type: functional, organism-based
Staphylococcus aureus = assay: Antibacterial activity against Staphylococcus aureus ATCC 6538; assay type: functional
Bacillus subtilis = assay: Antibacterial activity against Bacillus subtilis ATCC 6633; assay type: functional
Micrococcus luteus = assay: Antibacterial activity against Micrococcus luteus IFC12708; assay type: functional
Proteus vulgaris = assay: Antibacterial activity against Proteus vulgaris ATCC 3851; assay type: functional
Salmonella typhimurium = assay: Antibacterial activity against Salmonella Typhimurium ATCC 14028; assay type: functional, Salmonella enterica subsp. enterica serovar Typhimurium; conditions: Salmonella enterica
Escherichia coli = assay: Antibacterial activity against Escherichia coli ATCC 11775; assay type: functional

Chain of Isocitrate lyase (Q9P8Q7 whole entry): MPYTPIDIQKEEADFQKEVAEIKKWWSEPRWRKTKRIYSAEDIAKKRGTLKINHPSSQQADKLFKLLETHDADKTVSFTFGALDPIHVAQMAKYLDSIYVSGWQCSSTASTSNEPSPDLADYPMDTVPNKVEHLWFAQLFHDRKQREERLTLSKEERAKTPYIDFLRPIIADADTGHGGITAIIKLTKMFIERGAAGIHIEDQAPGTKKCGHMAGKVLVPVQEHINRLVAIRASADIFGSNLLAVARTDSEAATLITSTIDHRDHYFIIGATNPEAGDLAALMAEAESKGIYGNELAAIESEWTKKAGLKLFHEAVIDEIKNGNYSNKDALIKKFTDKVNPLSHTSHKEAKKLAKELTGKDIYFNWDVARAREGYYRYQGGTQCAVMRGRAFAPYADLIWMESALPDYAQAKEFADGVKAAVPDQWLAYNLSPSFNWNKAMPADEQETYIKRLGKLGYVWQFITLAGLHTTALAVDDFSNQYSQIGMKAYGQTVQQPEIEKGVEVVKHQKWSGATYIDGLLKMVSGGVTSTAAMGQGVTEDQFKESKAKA

| Structure (SMILES) | pIC50 (Isocitrate lyase) | pIC50 (Candida albicans) | MIC (Staphylococcus aureus) | MIC (Bacillus subtilis) | MIC (Micrococcus luteus) | MIC (Proteus vulgaris) | MIC (Salmonella typhimurium) | MIC (Escherichia coli) |
| --- | --- | --- | --- | --- | --- | --- | --- | --- |
| CN(C)C(=N)N.C[C@@H]1CCC2=C(CCCC2(C)C)[C@@]1(C)CC[C@H](CCCc1ccoc1)COS(=O)(=O)O | 4.47 | 3.73 | 50 µg/mL | 6.25 µg/mL | 50 µg/mL | 12.5 µg/mL | > 100 µg/mL | > 100 µg/mL |
| CC1=CC[C@H]2C(C)(C)CCC[C@]2(C)[C@H]1C/C=C(\C)CCC/C(C)=C/Cc1cc(O)ccc1O | 4.11 | 3.65 | 100 µg/mL (≈ 222 µM) | 3.25 µg/mL (≈ 7.21 µM) | 25 µg/mL (≈ 55.5 µM) | 6.25 µg/mL (≈ 13.9 µM) | 25 µg/mL (≈ 55.5 µM) | > 100 µg/mL |
| C=C1CC[C@H]2C(C)(C)CCC[C@]2(C)[C@H]1C[C@@H](OS(=O)(=O)[O-])[C@H](C)CCC/C(C)=C/Cc1cc(O)ccc1O.[Na+] | 4.15 | 3.88 | 25 µg/mL | 1.56 µg/mL | 50 µg/mL | 6.25 µg/mL | 50 µg/mL | > 100 µg/mL |
| CC1=CC[C@H]2C(C)(C)CCC[C@]2(C)[C@H]1C[C@@H](OS(=O)(=O)[O-])[C@H](C)CCC/C(C)=C/Cc1cc(O)ccc1O.[Na+] [HALISULFATE 1] | 4.15 | 3.88 | 25 µg/mL | 1.56 µg/mL | 50 µg/mL | 6.25 µg/mL | 50 µg/mL | > 100 µg/mL |
| C=C1CCC[C@@H]2[C@@](C)(CC[C@H](CCCc3ccoc3)COS(=O)(=O)O)[C@H](C)CC[C@]12C.CN(C)C(=N)N | 4.50 | 3.73 | 50 µg/mL | 12.5 µg/mL | 25 µg/mL | 6.25 µg/mL | 25 µg/mL | > 100 µg/mL |
| C[C@@H]1[C@H](O)[C@@H](C)/C=C/C=C/C=C/C=C/C=C/C=C/C=C/[C@H](O[C@@H]2O[C@H](C)[C@@H](O)[C@H](N)[C@@H]2O)C[C@@H]2O[C@](O)(C[C@@H](O)C[C@@H](O)[C@H](O)CC[C@@H](O)C[C@@H](O)CC(=O)O[C@H]1C)C[C@H](O)[C@H]2C(=O)O [AMPHOTERICIN B] |  | 5.77 |  |  |  |  |  |  |
| CC1(C)S[C@@H]2[C@H](NC(=O)[C@H](N)c3ccccc3)C(=O)N2[C@H]1C(=O)O [AMPICILLIN] |  |  | 3.12 µg/mL (≈ 8.93 µM) | 1.56 µg/mL (≈ 4.46 µM) | 1.56 µg/mL (≈ 4.46 µM) | 1.56 µg/mL (≈ 4.46 µM) | 1.56 µg/mL (≈ 4.46 µM) | 6.25 µg/mL (≈ 17.9 µM) |
| O=C(O)CC[N+](=O)[O-] | 4.29 | 3.07 |  |  |  |  |  |  |
| CC1=CC[C@H]2C(C)(C)CCC[C@]2(C)[C@H]1C[C@@H](OS(=O)(=O)O)[C@H](C)CCC/C(C)=C/Cc1cc(O)ccc1O.CN(C)C(=N)N | 3.80 | 3.80 | 50 µg/mL | 6.25 µg/mL | > 100 µg/mL | 12.5 µg/mL | 50 µg/mL | > 100 µg/mL |
| CC1=CCC[C@@H](C)[C@]1(C)CC/C(C)=C/CCC(CCCc1ccoc1)COS(=O)(=O)O.CN(C)C(=N)N (stereo not given in full) | 3.73 | 3.73 | > 100 µg/mL | 6.25 µg/mL | > 100 µg/mL | 25 µg/mL | > 100 µg/mL | > 100 µg/mL |
